Reference: patent US20090252754A1, “Vaccines containing the hiv tat protein as an adjuvant for the enhancement of cytotoxic t-cell responses” (priority 2003, published 2009)

Columns and labels:
[1] = test system: ovalbumin epitopes SII, KVV, CFD on EL4 cells; experiment: Ova-specific CTL responses in vaccinated mice (cytotoxicity against peptide-pulsed EL4 cells); format: in vivo, C57BL/6 mice; settings: fresh splenocytes; 25 μg ovalbumin alone or with 5 and 10 μg Tat, s.c., Freund's adjuvant
Method: Seven- to eight-week old female C57BL/6 mice (H-2^b) (Nossan) were injected with 25 μg ovalbumin (Sigma, St. Louis, Mo.) alone or in combination with native monomeric biologically active Tat protein (5 and 10 μg) and resuspended in degassed sterile PBS in Freund's adjuvant (CFA for the first injection, and IFA for subsequent injections). Control mice were injected with PBS alone in Freund's adjuvant. Samples (100 μl) were given by subcutaneous (s.c.) injection in one site in the back. Each experimental group consisted of five mice, and the experiment was repeated twice. Mice were boosted at day 24. Two weeks after the last injection, animals were anaesthetised i.p., as described above, and sacrificed to collect spleens. Mononuclear cells from individual spleens were purified as described above, pooled and tested in cytotoxic assay against peptide-pulsed EL4 cells.
(§1) C57BL/6 mice (H-2^b) (Harlan Nossan, Udine, I) were immunized subcutaneously, in a single site in the back, with 25 μg of ovalbumin (Sigma) alone or in combination with native monomeric biologically active Tat protein (5 and 10 μg, respectively) in Freund's adjuvant (CFA for the first injection, and IFA for subsequent injections). BALB/c mice (H-2^d) (Harlan, Udine, Italy) were immunized subcutaneously, in a single site in the back, with 5 μg of HIV-1 Gag or Env proteins alone or in combination with 5 μg of native monomeric biologically active Tat protein or with the mutant Tatcys22 protein in Freund's adjuvant or in Alum. Each group was composed of 5 animals. Immunogens were given subcutaneously in 100 μl, at days 1, 14 and 28. Mice were sacrificed 10 days after the last boost (day 38). During the course of the experiments, animals were controlled twice a week at the site of injection and for their general conditions (such as liveliness, food intake, vitality, weight, motility, sheen of hair). No signs of local nor systemic adverse reactions were ever observed in mice receiving the immunogens as compared to control or untreated mice. Animal use was according to European and institutional guidelines.

[2] = test system: proteasome subunits (α2, LMP2, LMP7, MECL1) in Jurkat cells; experiment: Western blot of proteasome subunits in Jurkat cells expressing or treated with Tat, Tat mutants or Tat peptides; format: cell-based, human; settings: Jurkat cells treated for 24 h with 0.1 μg/ml
Method: Jurkat T cells expressing Tat or mutated Tat (referred to as Tat22, wherein a Cys at position 22 is mutated) have previously been described (1). Cells were cultured in a medium supplemented with 800 μg/ml neomycin (Sigma, St. Louise, […].).
Cells were lysed with glass beads as previously described (4). Supernatants were ultracentrifuged for 1 h at 100,000 g and loaded into an affinity column containing a matrix derivatised with the MCP21 mAb specific for the α2 subunit of the proteasome (Affinity, Exeter, UK). Proteasomes were eluted with 25 mM Tris-HCl pH 7.5 containing 2 M NaCl, and 0.5 ml fractions were collected. Homogeneity of the eluted material was confirmed by analysis of an aliquot by SDS 12% PAGE and Coomassie blue staining of the gel. Fractions containing proteasomes were combined and dialysed against 25 mM Tris-HCl pH 7.5. Protein concentration was determined using the BCA method (Pierce Chemical, Rockford, Ill.).
Equal amounts of proteins, or equal amounts of purified proteasomes, were loaded on a 12% SDS-PAGE and electro-blotted onto Protran nitrocellulose membranes (Schleicher & Schuell, Keene, Hampshire, USA). Blots were probed with Abs specific for α2, LMP2 LMP7, MECL1, and PA28α subunits (Affinity), and developed by enhanced chemi-luminescence (ECL, Amersham Pharmacia Biotech, Uppsala, SW).

HIV-1 Env peptide pools = experiment: Env-specific IFNγ Elispot on splenocytes of immunized mice; format: in vivo, BALB/c mice
Method: as §1, with “During the course of the experiments, animals were controlled twice a week at the site of injection and for their general conditions (such as liveliness, food intake, vitality, weight, motility, sheen of hair). No signs of local nor systemic adverse reactions were ever observed in mice receiving the immunogens as compared to control or untreated mice. Animal use was according to European and institutional guidelines.” left out
Splenocytes were purified from spleens squeezed on filters (Cell Strainer, 70 μm, Nylon, Becton Dickinson). […] Cellular responses were also measured after in vitro re-stimulation. […]
Elispot (IFN-γ) was carried out using a commercially available kit provided by Becton Dickinson (murine IFNgamma ELISPOT Set; #551083), according to manufacturer's instructions. […] The spots were read using an Elispot reader (Elivis, Germany). The results are expressed as neat number of spot forming units (SFU)/10^6 cells: [mean number SFU of peptide treated wells minus mean number SFU of the negative control]. […]

For ovalbumin, the “recognition of EL4 target cells pulsed with cryptic CFD epitope” value [1] was “did not recognise”, the “recognition of EL4 target cells pulsed with immunodominant SII epitope” value [1] was “recognised” and the “recognition of EL4 target cells pulsed with subdominant KVV epitope” value [1] was “did not recognise”.

“21-58: peptide covering amino acids 21-58 of the wild-type sequence of Tat (ACTNCYCKKCCFHCQVCFITKALGISYGRKKRRQRRRA; UniProt P04608 21-58, looked up, fragment)” was tested, and the “LMP2 expression in total cell lysates” value [2] was “no discernable effect”.

For “1-38: peptide covering amino acids 1-38 of the wild-type sequence of Tat (MEPVDPRLEPWKHPGSQPKTACTNCYCKKCCFHCQVCF; UniProt P04608 1-38, looked up, fragment)”, the “LMP2 expression in total cell lysates” value [2] was “no discernable effect”.

In the case of “47-86: peptide of amino acids 47-86 of wild-type Tat (SEQ ID NO 285) (YGRKKRRQRRRPPQGSQTHQVSLSKQPTSQSRGDPTGPKE; Human immunodeficiency virus)”, the “LMP2 expression in total cell lysates” value [2] is reported as “induced down-regulation”.

“Env: HIV-1 Env protein (gp120 SF162, SEQ ID NO 267) from NIH AIDS Reagent Program” was tested, and the “response of fresh splenocytes to Env-derived peptide pools” value (HIV-1 Env peptide pools; fresh splenocytes, IFN-γ Elispot (data not shown)) was “did not respond” and the “number of Env-derived peptide pools responded to” value (HIV-1 Env peptide pools; vaccinated BALB/c mice) was 8.
